The results in this text go back to ChEMBL document CHEMBL2069169, “Novel triazines as potent and selective phosphodiesterase 10A inhibitors” (Bioorg Med Chem Lett, 2012).

One experiment has as its target Phosphodiesterase 6. The experiment can be described thus: Inhibition of PDE6. In kind it is protein assay, Homo sapiens.
For experiment [1], the target named is cGMP-specific 3',5'-cyclic phosphodiesterase (Canis lupus familiaris, UniProt O77746). The experiment can be described thus: Inhibition of PDE5. Details: species or system Homo sapiens.
For another experiment, the target named is Phosphodiesterase 4 (Homo sapiens, UniProt P27815+Q08499+Q07343+Q08493). The experiment can be described thus: Inhibition of PDE4. In kind it is protein assay.
The target in another experiment is Phosphodiesterase 3 (Homo sapiens, UniProt Q14432+Q13370). The experiment can be described thus: Inhibition of PDE3. In kind it is protein assay.
The target in experiment [2] is cGMP-dependent 3',5'-cyclic phosphodiesterase (Homo sapiens, UniProt O00408). The experiment can be described thus: Inhibition of PDE2.
Experiment [3] concerns the target cAMP and cAMP-inhibited cGMP 3',5'-cyclic phosphodiesterase 10A (Homo sapiens, UniProt Q9Y233). The experiment can be described thus: Inhibition of human recombinant PDE10A-catalyzed cAMP hydrolysis.

Structures are written as SMILES.

cGMP-dependent 3',5'-cyclic phosphodiesterase, sequence (O00408 whole entry): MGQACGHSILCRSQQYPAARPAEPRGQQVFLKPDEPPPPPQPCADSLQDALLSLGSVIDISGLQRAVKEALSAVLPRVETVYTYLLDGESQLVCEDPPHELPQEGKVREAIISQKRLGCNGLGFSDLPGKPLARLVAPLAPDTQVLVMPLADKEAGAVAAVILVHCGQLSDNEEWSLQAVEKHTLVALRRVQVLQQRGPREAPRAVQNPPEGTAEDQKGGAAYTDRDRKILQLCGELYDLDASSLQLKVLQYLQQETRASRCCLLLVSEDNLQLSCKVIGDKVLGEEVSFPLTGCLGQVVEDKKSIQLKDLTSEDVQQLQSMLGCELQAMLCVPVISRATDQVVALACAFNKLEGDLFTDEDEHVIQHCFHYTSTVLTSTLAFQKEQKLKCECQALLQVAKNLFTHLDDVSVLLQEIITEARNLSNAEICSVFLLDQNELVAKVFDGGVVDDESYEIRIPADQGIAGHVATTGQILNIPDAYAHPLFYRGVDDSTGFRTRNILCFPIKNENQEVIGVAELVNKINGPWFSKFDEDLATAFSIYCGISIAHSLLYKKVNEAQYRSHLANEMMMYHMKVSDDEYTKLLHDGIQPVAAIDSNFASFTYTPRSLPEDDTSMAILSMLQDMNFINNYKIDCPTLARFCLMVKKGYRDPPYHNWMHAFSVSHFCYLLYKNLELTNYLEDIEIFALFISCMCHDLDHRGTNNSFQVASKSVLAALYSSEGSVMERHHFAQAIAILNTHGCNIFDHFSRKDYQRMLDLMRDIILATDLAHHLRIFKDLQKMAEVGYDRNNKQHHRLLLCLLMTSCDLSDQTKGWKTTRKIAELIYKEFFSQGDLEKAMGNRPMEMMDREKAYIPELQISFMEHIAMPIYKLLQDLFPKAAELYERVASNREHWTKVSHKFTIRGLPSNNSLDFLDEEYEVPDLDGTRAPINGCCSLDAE
cAMP and cAMP-inhibited cGMP 3',5'-cyclic phosphodiesterase 10A, sequence (Q9Y233 whole entry): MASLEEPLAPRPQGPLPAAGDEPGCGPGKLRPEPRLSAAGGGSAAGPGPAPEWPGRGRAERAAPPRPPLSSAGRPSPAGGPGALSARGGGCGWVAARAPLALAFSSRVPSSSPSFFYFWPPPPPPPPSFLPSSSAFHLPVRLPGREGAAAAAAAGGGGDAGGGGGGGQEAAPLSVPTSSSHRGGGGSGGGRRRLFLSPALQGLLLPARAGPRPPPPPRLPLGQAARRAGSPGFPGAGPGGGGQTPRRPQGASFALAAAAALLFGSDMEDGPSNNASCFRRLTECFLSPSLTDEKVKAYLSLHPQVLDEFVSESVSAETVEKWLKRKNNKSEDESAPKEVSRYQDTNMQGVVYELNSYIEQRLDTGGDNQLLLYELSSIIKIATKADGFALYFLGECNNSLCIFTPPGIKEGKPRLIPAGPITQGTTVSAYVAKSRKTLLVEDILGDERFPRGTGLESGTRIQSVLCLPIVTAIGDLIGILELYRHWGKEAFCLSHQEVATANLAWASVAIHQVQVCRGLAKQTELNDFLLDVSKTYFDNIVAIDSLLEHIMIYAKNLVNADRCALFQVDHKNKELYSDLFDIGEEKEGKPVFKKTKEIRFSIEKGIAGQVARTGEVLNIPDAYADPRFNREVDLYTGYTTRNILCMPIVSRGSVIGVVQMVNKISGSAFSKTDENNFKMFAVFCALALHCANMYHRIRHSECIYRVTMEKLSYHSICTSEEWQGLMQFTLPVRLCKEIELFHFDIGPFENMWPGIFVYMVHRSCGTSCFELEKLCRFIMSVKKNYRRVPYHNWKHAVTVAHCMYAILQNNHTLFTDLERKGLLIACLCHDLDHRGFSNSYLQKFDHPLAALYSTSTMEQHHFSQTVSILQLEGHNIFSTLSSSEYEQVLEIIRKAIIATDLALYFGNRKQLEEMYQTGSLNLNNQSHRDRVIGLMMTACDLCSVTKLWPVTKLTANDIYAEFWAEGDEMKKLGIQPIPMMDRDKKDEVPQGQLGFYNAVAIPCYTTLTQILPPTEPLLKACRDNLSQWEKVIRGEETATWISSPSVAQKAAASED

Take `COc1cccc2c1nnc1c(C)nc(-c3ccccc3Cl)n12`: the IC50 was 1060 nM against Phosphodiesterase 6, 3060 nM in experiment [1], 70.8 nM at Phosphodiesterase 4 and more than 10000 nM against Phosphodiesterase 3.
For `COc1cc(N2CCOCC2)cc2c1nnc1c(C)nc(-c3ccncc3C)n12`, the IC50 was 3120 nM against Phosphodiesterase 6; 5380 nM in experiment [1]; 4.37 nM in experiment [2]; more than 10000 nM at Phosphodiesterase 4; more than 10000 nM on Phosphodiesterase 3.
As for `COc1ccc2nnc3c(C)nc(-c4ccccc4Cl)n3c2n1`, the IC50 on Phosphodiesterase 6 is 435 nM; in experiment [1] it was 1680 nM; in experiment [2], 4.3 nM; against Phosphodiesterase 4 it was more than 10000 nM; in experiment [3], 13.1 nM; on Phosphodiesterase 3, 1240 nM.
In the case of `COc1cc(OC)c2nnc3c(C)nc(-c4ccccc4C)n3c2c1`, the IC50 was 349 nM against Phosphodiesterase 6; 1110 nM in experiment [1]; 95.9 nM in experiment [2]; more than 10000 nM against Phosphodiesterase 4; 5.13 nM in experiment [3]; more than 10000 nM against Phosphodiesterase 3.
With `COc1cc(F)cc2c1nnc1c(C)nc(-c3cnccc3C)n12`, the IC50 (at Phosphodiesterase 6; in experiment [1]; at Phosphodiesterase 4; against Phosphodiesterase 3) was more than 10000 nM in each case.
With `COc1cc(N2CCOCC2)cc2c1nnc1c(C)nc(-c3ccccc3C)n12`, the IC50 at Phosphodiesterase 6 is 693 nM; in experiment [1], 651 nM; against Phosphodiesterase 4 it was 2920 nM; at Phosphodiesterase 3, more than 10000 nM.
With `COc1ccc2nnc3c(C)nc(-c4ccc(Cl)cc4Cl)n3c2n1`, the IC50 (against Phosphodiesterase 6; in experiment [1]; against Phosphodiesterase 4; on Phosphodiesterase 3) was more than 1000 nM throughout.
As for `COc1cc(F)cc2c1nnc1c(C)nc(-c3cccnc3C)n12`, the IC50 was 2830 nM at Phosphodiesterase 6; more than 5000 nM in experiment [1]; 1270 nM in experiment [2]; more than 10000 nM against Phosphodiesterase 4; 7.84 nM in experiment [3]; more than 10000 nM at Phosphodiesterase 3.
As to `COc1cc(N2CCOCC2)cc2c1nnc1c(C)nc(-c3ccccc3Cl)n12`, the IC50 against Phosphodiesterase 6 is 276 nM; in experiment [1] it was 603 nM; against Phosphodiesterase 4 it was 2680 nM; against Phosphodiesterase 3, more than 10000 nM.
As for `COc1cc(C(F)(F)F)cc2c1nnc1c(C)nc(-c3cccc(F)c3C)n12`, the IC50 on Phosphodiesterase 6 was 1260 nM; in experiment [1] it was 2130 nM; in experiment [2], 722 nM; on Phosphodiesterase 4, more than 5000 nM; in experiment [3], 1.85 nM; on Phosphodiesterase 3, more than 5000 nM.
For the compound `COc1ccc2nnc3c(C)nc(-c4ccc(F)cc4C)n3c2n1`, the IC50 was 1150 nM on Phosphodiesterase 6; 34100 nM in experiment [1]; 13.2 nM in experiment [2]; more than 10000 nM on Phosphodiesterase 4; 45.9 nM in experiment [3]; 7260 nM against Phosphodiesterase 3.
As for `COc1ccc2nnc3c(C)nc(-c4cc(Cl)ccc4Cl)n3c2n1`, the IC50 on Phosphodiesterase 6 stood at 829 nM; in experiment [1], 1150 nM; in experiment [2] it was 2.06 nM; on Phosphodiesterase 4, 4410 nM; in experiment [3] it was 53.1 nM; at Phosphodiesterase 3, 750 nM.
For the compound `COc1cc(F)cc2c1nnc1c(C)nc(-c3sccc3C)n12`, the IC50 is 3270 nM against Phosphodiesterase 6, 3600 nM in experiment [1], 7720 nM against Phosphodiesterase 4 and more than 10000 nM on Phosphodiesterase 3.
In the case of `COc1ccc2nnc3c(C)nc(-c4cc(OC(C)C)ccc4F)n3c2n1`, the IC50 in experiment [2] came out at 102 nM; in experiment [3] it was 2430 nM.
With `COc1ccc(F)c(-c2nc(C)c3nnc4ccc(OC)nc4n23)c1`, the IC50 at Phosphodiesterase 6 worked out at 734 nM; in experiment [1] it was 702 nM; on Phosphodiesterase 4 it was 4820 nM; against Phosphodiesterase 3, 1820 nM.
Consider `COc1ccc2nnc3c(C)nc(-c4ccc(F)cc4Cl)n3c2n1`, for which the IC50 against Phosphodiesterase 6 was 462 nM; in experiment [1], more than 1000 nM; against Phosphodiesterase 4, more than 1000 nM; against Phosphodiesterase 3, more than 1000 nM.
In the case of `COc1cccc(-c2nc(C)c3nnc4c(OC)cc(F)cc4n23)c1`, the IC50 was more than 1000 nM against Phosphodiesterase 6; more than 1000 nM in experiment [1]; 2000 nM in experiment [2]; more than 1000 nM at Phosphodiesterase 4; more than 1000 nM on Phosphodiesterase 3.
Turning to `COc1cc(F)cc2c1nnc1c(C)nc(-c3sc(C)nc3C)n12`, the IC50 against Phosphodiesterase 6 is 3880 nM; in experiment [1], 4760 nM; against Phosphodiesterase 4, 2460 nM; against Phosphodiesterase 3 it was more than 10000 nM.
Turning to `COc1cc(F)cc2c1nnc1c(C)nc(-c3cccc(F)c3C)n12`, the IC50 (against Phosphodiesterase 6; in experiment [1]; against Phosphodiesterase 4; on Phosphodiesterase 3) was more than 1000 nM in each case.
As for `COc1cc(OC(F)F)cc2c1nnc1c(C)nc(-c3ccncc3C)n12`, the IC50 against Phosphodiesterase 6 was 909 nM; in experiment [1], 4020 nM; in experiment [2], 944 nM; against Phosphodiesterase 4 it was more than 10000 nM; in experiment [3] it was 7 nM; at Phosphodiesterase 3, more than 10000 nM.
For the compound `COc1cc(F)cc2c1nnc1c(C)nc(-c3ccncc3C)n12`, the IC50 against Phosphodiesterase 6 is more than 10000 nM; in experiment [1], more than 10000 nM; in experiment [2], 1220 nM; on Phosphodiesterase 4, more than 10000 nM; in experiment [3] it was 7.2 nM; at Phosphodiesterase 3, more than 10000 nM.
Take `COc1cc(F)c2nnc3c(C)nc(-c4sccc4C)n3c2c1`: the IC50 against Phosphodiesterase 6 came out at 1230 nM; in experiment [1], 2780 nM; on Phosphodiesterase 4, 3670 nM; against Phosphodiesterase 3, 2250 nM.
As to `COc1ccc2nnc3c(C)nc(-c4ccccc4C)n3c2n1`, the IC50 against Phosphodiesterase 6 was 1570 nM; in experiment [1], 3410 nM; against Phosphodiesterase 4 it was more than 10000 nM; in experiment [3], 47.6 nM; at Phosphodiesterase 3, more than 5000 nM.
For `COc1cc(C(F)(F)F)cc2c1nnc1c(C)nc(-c3cnccc3C)n12`, the IC50 at Phosphodiesterase 6 was 5250 nM; in experiment [1], more than 10000 nM; in experiment [2], 864 nM; at Phosphodiesterase 4, more than 10001 nM; in experiment [3] it was 5.11 nM; against Phosphodiesterase 3, more than 10000 nM.
For `COc1ccccc1-c1nc(C)c2nnc3c(OC)cc(F)cc3n12`, the IC50 (against Phosphodiesterase 6; in experiment [1]; against Phosphodiesterase 4; against Phosphodiesterase 3) was more than 10000 nM in each case.
Regarding `COc1cc(F)cc2c1nnc1c(C)nc(-c3c(C)nn(C)c3C)n12`, the IC50 is more than 5000 nM at Phosphodiesterase 6, more than 10000 nM in experiment [1], more than 10000 nM on Phosphodiesterase 4 and more than 10000 nM against Phosphodiesterase 3.
As for `COc1cc(OC)c2nnc3c(C)nc(-c4ccccc4C(F)(F)F)n3c2c1`, the IC50 is more than 1000 nM against Phosphodiesterase 6; more than 1000 nM in experiment [1]; 522 nM in experiment [2]; more than 1000 nM at Phosphodiesterase 4; 3.35 nM in experiment [3]; more than 1000 nM at Phosphodiesterase 3.

One may read the IC50 as the concentration that inhibits the measured activity by half.
